Results taken from ChEMBL document CHEMBL1154064, “Synthesis and DNA cleavage activity of 2-hydrazinyl-1,4,5,6-tetrahydropyrimidine containing hydroxy group” (2009).

Assays:
[1] = test system: Nucleic Acid; assay: Binding affinity to Escherichia coli pUC19 DNA assessed as form 2 DNA level at 0.175 mM after 9.07 hrs by agarose gel electrophoresis; format: nucleic-acid assay
[2] = test system: Nucleic Acid; assay: Binding affinity to Escherichia coli pUC19 DNA assessed as form 2 DNA level at 0.175 mM after 4.95 hrs by agarose gel electrophoresis; format: nucleic-acid assay
[3] = test system: HL-60; assay: Growth inhibition of human HL60 cells at 100 uM after 72 hrs by MTT assay; format: functional; set-up: scale not given: the % may be the effect or the level left
[4] = test system: Nucleic Acid; assay: Binding affinity to Escherichia coli pUC19 DNA assessed as form 2 DNA level at 0.320 mM after 13.07 hrs by agarose gel electrophoresis; format: nucleic-acid assay
[5] = test system: Nucleic Acid; assay: Binding affinity to Escherichia coli pUC19 DNA assessed as form 2 DNA level at 0.463 mM after 11.30 hrs by agarose gel electrophoresis; format: nucleic-acid assay
[6] = test system: Nucleic Acid; assay: Binding affinity to Escherichia coli pUC19 DNA assessed as form 2 DNA level at 0.698 mM after 9.07 hrs by agarose gel electrophoresis; format: nucleic-acid assay
[7] = test system: Nucleic Acid; assay: Binding affinity to Escherichia coli pUC19 DNA assessed as form 2 DNA level at 0.320 mM by agarose gel electrophoresis; format: nucleic-acid assay
[8] = test system: Nucleic Acid; assay: Binding affinity to Escherichia coli pUC19 DNA assessed as form 1 DNA level at 0.320 mM after 27.33 hrs by agarose gel electrophoresis; format: nucleic-acid assay
[9] = test system: Nucleic Acid; assay: Binding affinity to Escherichia coli pUC19 DNA assessed as form 2 DNA level at 0.698 mM after 23.12 hrs by agarose gel electrophoresis; format: nucleic-acid assay
[10] = test system: Nucleic Acid; assay: Binding affinity to Escherichia coli pUC19 DNA assessed as form 1 DNA level at 0.698 mM by agarose gel electrophoresis; format: nucleic-acid assay
[11] = test system: Nucleic Acid; assay: Binding affinity to Escherichia coli pUC19 DNA assessed as form 2 DNA level at 0.463 mM after 7.08 hrs by agarose gel electrophoresis; format: nucleic-acid assay
[12] = test system: Nucleic Acid; assay: Binding affinity to Escherichia coli pUC19 DNA assessed as form 2 DNA level at 0.698 mM after 13.07 hrs by agarose gel electrophoresis; format: nucleic-acid assay
[13] = test system: Nucleic Acid; assay: Binding affinity to Escherichia coli pUC19 DNA assessed as form 1 DNA level at 0.463 mM after 4.42 hrs by agarose gel electrophoresis; format: nucleic-acid assay
[14] = test system: Nucleic Acid; assay: Binding affinity to Escherichia coli pUC19 DNA assessed as form 1 DNA level at 0.175 mM after 9.07 hrs by agarose gel electrophoresis; format: nucleic-acid assay
[15] = test system: Nucleic Acid; assay: Binding affinity to Escherichia coli pUC19 DNA assessed as form 1 DNA level at 0.320 mM after 9.07 hrs by agarose gel electrophoresis; format: nucleic-acid assay
[16] = test system: Nucleic Acid; assay: Binding affinity to Escherichia coli pUC19 DNA assessed as form 2 DNA level at 0.175 mM by agarose gel electrophoresis; format: nucleic-acid assay
[17] = test system: HL-60; assay: Growth inhibition of human HL60 cells at 10 uM after 72 hrs by MTT assay; format: functional; set-up: scale not given: the % may be the effect or the level left
[18] = test system: Nucleic Acid; assay: Binding affinity to Escherichia coli pUC19 DNA assessed as form 1 DNA level at 0.320 mM after 4.95 hrs by agarose gel electrophoresis; format: nucleic-acid assay
[19] = test system: Nucleic Acid; assay: Binding affinity to Escherichia coli pUC19 DNA assessed as form 1 DNA level at 0.463 mM after 7.08 hrs by agarose gel electrophoresis; format: nucleic-acid assay
[20] = test system: Nucleic Acid; assay: Binding affinity to Escherichia coli pUC19 DNA assessed as form 1 DNA level at 0.698 mM after 9.07 hrs by agarose gel electrophoresis; format: nucleic-acid assay
[21] = test system: HeLa; assay: Growth inhibition of human HeLa cells at 100 uM after 72 hrs by MTT assay; format: functional; set-up: scale not given: the % may be the effect or the level left
[22] = test system: Nucleic Acid; assay: Binding affinity to Escherichia coli pUC19 DNA assessed as form 2 DNA level at 0.463 mM after 15 hrs by agarose gel electrophoresis; format: nucleic-acid assay
[23] = test system: Nucleic Acid; assay: Binding affinity to Escherichia coli pUC19 DNA assessed as form 1 DNA level at 0.463 mM after 15 hrs by agarose gel electrophoresis; format: nucleic-acid assay
[24] = test system: HL-60; assay: Growth inhibition of human HL60 cells at 1000 uM after 72 hrs by MTT assay; format: functional; set-up: scale not given: the % may be the effect or the level left
[25] = test system: Nucleic Acid; assay: Binding affinity to Escherichia coli pUC19 DNA assessed as form 2 DNA level at 0.463 mM after 4.42 hrs by agarose gel electrophoresis; format: nucleic-acid assay
[26] = test system: Nucleic Acid; assay: Binding affinity to Escherichia coli pUC19 DNA assessed as form 1 DNA level at 0.175 mM after 13.07 hrs by agarose gel electrophoresis; format: nucleic-acid assay
[27] = test system: Nucleic Acid; assay: Binding affinity to Escherichia coli pUC19 DNA assessed as form 1 DNA level at 0.463 mM after 11.30 hrs by agarose gel electrophoresis; format: nucleic-acid assay
[28] = test system: Nucleic Acid; assay: Binding affinity to Escherichia coli pUC19 DNA assessed as form 2 DNA level at 0.320 mM after 4.95 hrs by agarose gel electrophoresis; format: nucleic-acid assay
[29] = test system: Nucleic Acid; assay: Binding affinity to Escherichia coli pUC19 DNA assessed as form 1 DNA level at 0.175 mM after 23.12 hrs by agarose gel electrophoresis; format: nucleic-acid assay
[30] = test system: Nucleic Acid; assay: Binding affinity to Escherichia coli pUC19 DNA assessed as form 2 DNA level at 0.320 mM after 9.07 hrs by agarose gel electrophoresis; format: nucleic-acid assay
[31] = test system: Nucleic Acid; assay: Binding affinity to Escherichia coli pUC19 DNA assessed as form 2 DNA level at 0.175 mM after 23.12 hrs by agarose gel electrophoresis; format: nucleic-acid assay
[32] = test system: Nucleic Acid; assay: Binding affinity to Escherichia coli pUC19 DNA assessed as form 1 DNA level at 0.320 mM by agarose gel electrophoresis; format: nucleic-acid assay
[33] = test system: Nucleic Acid; assay: Binding affinity to Escherichia coli pUC19 DNA assessed as form 1 DNA level at 0.463 mM by agarose gel electrophoresis; format: nucleic-acid assay
[34] = test system: Nucleic Acid; assay: Binding affinity to Escherichia coli pUC19 DNA assessed as form 2 DNA level at 0.698 mM by agarose gel electrophoresis; format: nucleic-acid assay
[35] = test system: Nucleic Acid; assay: Binding affinity to Escherichia coli pUC19 DNA assessed as form 1 DNA level at 0.698 mM after 23.12 hrs by agarose gel electrophoresis; format: nucleic-acid assay
[36] = test system: Nucleic Acid; assay: Binding affinity to Escherichia coli pUC19 DNA assessed as form 2 DNA level at 0.175 mM after 13.07 hrs by agarose gel electrophoresis; format: nucleic-acid assay
[37] = test system: Nucleic Acid; assay: Binding affinity to Escherichia coli pUC19 DNA assessed as form 1 DNA level at 0.698 mM after 13.07 hrs by agarose gel electrophoresis; format: nucleic-acid assay
[38] = test system: Nucleic Acid; assay: Binding affinity to Escherichia coli pUC19 DNA assessed as form 1 DNA level at 0.698 mM after 4.95 hrs by agarose gel electrophoresis; format: nucleic-acid assay
[39] = test system: Nucleic Acid; assay: Binding affinity to Escherichia coli pUC19 DNA assessed as form 1 DNA level at 0.175 mM after 4.95 hrs by agarose gel electrophoresis; format: nucleic-acid assay
[40] = test system: Nucleic Acid; assay: Binding affinity to Escherichia coli pUC19 DNA assessed as form 1 DNA level at 0.175 mM by agarose gel electrophoresis; format: nucleic-acid assay
[41] = test system: Nucleic Acid; assay: Binding affinity to Escherichia coli pUC19 DNA assessed as form 2 DNA level at 0.320 mM after 27.33 hrs by agarose gel electrophoresis; format: nucleic-acid assay
[42] = test system: HeLa; assay: Growth inhibition of human HeLa cells at 10 uM after 72 hrs by MTT assay; format: functional; set-up: scale not given: the % may be the effect or the level left
[43] = test system: Nucleic Acid; assay: Binding affinity to Escherichia coli pUC19 DNA assessed as form 2 DNA level at 0.698 mM after 4.95 hrs by agarose gel electrophoresis; format: nucleic-acid assay
[44] = test system: Nucleic Acid; assay: Binding affinity to Escherichia coli pUC19 DNA assessed as form 2 DNA level at 0.463 mM by agarose gel electrophoresis; format: nucleic-acid assay
[45] = test system: HeLa; assay: Growth inhibition of human HeLa cells at 1000 uM after 72 hrs by MTT assay; format: functional; set-up: scale not given: the % may be the effect or the level left
[46] = test system: Nucleic Acid; assay: Binding affinity to Escherichia coli pUC19 DNA assessed as form 1 DNA level at 0.320 mM after 13.07 hrs by agarose gel electrophoresis; format: nucleic-acid assay

Cl.Cl.NNC1=NCCN1
Activity [1]: 1.8% | Activity [2]: 1.43% | Activity [3]: 4% | Activity [4]: 7.99% | Activity [5]: 7.13% | Activity [6]: 4.22% | Activity [7]: 3.24% | Activity [8]: 72.2% | Activity [9]: 14.2% | Activity [10]: 98.5% | Activity [11]: 4.78% | Activity [12]: 7.62% | Activity [13]: 97.4% | Activity [14]: 98.2% | Activity [15]: 94.1% | Activity [16]: 0.4% | Activity [17]: 1% | Activity [18]: 95% | Activity [19]: 95.2% | Activity [20]: 95.8% | Activity [21]: 1% | Activity [22]: 9.67% | Activity [23]: 90.3% | Activity [24]: 57% | Activity [25]: 2.64% | Activity [26]: 96.9% | Activity [27]: 92.9% | Activity [28]: 5.03% | Activity [29]: 93.9% | Activity [30]: 5.87% | Activity [31]: 6.09% | Activity [32]: 96.8% | Activity [33]: 97.6% | Activity [34]: 1.52% | Activity [35]: 85.8% | Activity [36]: 3.07% | Activity [37]: 92.4% | Activity [38]: 97.9% | Activity [39]: 98.6% | Activity [40]: 99.6% | Activity [41]: 27.8% | Activity [42]: 1% | Activity [43]: 2.13% | Activity [44]: 2.43% | Activity [45]: 2% | Activity [46]: 92%
